This passage reports inhibition and Ki results from ChEMBL document CHEMBL4402608 (J Med Chem, 2020).

Series [1] has as its target delta opioid receptor (DOR) (Homo sapiens, UniProt P41143). As to the kind of experiment: Displacement of [3H]-DADLE from recombinant human DOR stably expressed in HEK cell membranes at 10 uM measured after 90 mins by microbeta scintillation counting method relative to control. The settings on record: HEK cell membranes stably expressing recombinant human DOR, probe [3H]-DADLE. (In general: Displacement assays read how much labelled ligand stays bound in the presence of the test substance.)

Series [2] has as its target Mu-type opioid receptor (Homo sapiens, UniProt P35372). As to the kind of experiment: Displacement of [3H]-DAMGO from recombinant human MOR stably expressed in HEK cell membranes measured after 90 mins by microbeta scintillation counting method.
For series [3], the target named is mu opioid receptor (MOR) (Homo sapiens, UniProt P35372). Kind of series: Displacement of [3H]-DAMGO from recombinant human MOR stably expressed in HEK cell membranes at 10 uM measured after 90 mins by microbeta scintillation counting method relative to control. The settings on record: HEK cell membranes stably expressing recombinant human MOR, probe [3H]-DAMGO.

Series [4] deals with Muscarinic acetylcholine receptor M4 (Homo sapiens, UniProt P08173). Kind of series: Displacement of [3H]-QNB/[3H]-NMS from human muscarinic M4 receptor expressed in stable CHO cell membranes after 90 mins by microbeta scintillation counting method.
The target in series [5] is 5HT2A receptor (Homo sapiens, UniProt P28223). As to the kind of experiment: Displacement of [3H]-Ketanserin from 5HT2A receptor (unknown origin) at 10 uM measured after 90 mins by microbeta scintillation counting method relative to control. The settings on record: probe [3H]-Ketanserin.
Series [6] concerns the target 5-hydroxytryptamine receptor 2B (Homo sapiens, UniProt P41595). Kind of series: Displacement of [3H]-LSD from recombinant human 5HT2B receptor stably expressed in HEK cell membranes measured after 90 mins by microbeta scintillation counting method.
Series [7] concerns the target 5HT1B receptor (Homo sapiens, UniProt P28222). Kind of series: Displacement of [3H]5-CT from recombinant human 5HT1B receptor stably expressed in HEK cell membranes at 10 uM measured after 90 mins by microbeta scintillation counting method relative to control. The settings on record: probe [3H]5-CT.
For series [8], the target named is Muscarinic acetylcholine receptor M5 (Homo sapiens, UniProt P08912). Kind of series: Displacement of [3H]-QNB/[3H]-NMS from human muscarinic M5 receptor expressed in stable CHO cell membranes after 90 mins by microbeta scintillation counting method.
In series [9] the target is sigma 2 receptor (Homo sapiens, UniProt Q5BJF2). As to the kind of experiment: Displacement of [3H]-DTG from sigma 2 receptor (unknown origin) at 10 uM measured after 90 mins by microbeta counting analysis relative to control. The settings on record: probe [3H]-DTG.
The target of series [10] is Histamine H3 receptor (Homo sapiens, UniProt Q9Y5N1). As to the kind of experiment: Displacement of [3H]-alpha-methylhistamine from recombinant human histamine H3 receptor expressed in HEK Flp-In cell membranes at 10 uM measured after 90 mins by microbeta scintillation counting method relative to control. The settings on record: probe [3H]-alpha-methylhistamine.
Series [11] addresses muscarinic M2 receptor (Homo sapiens, UniProt P08172). Kind of series: Displacement of [3H]-QNB/[3H]-NMS from human muscarinic M2 receptor expressed in stable CHO cell membranes at 10 uM after 90 mins by microbeta scintillation counting method relative to control. The settings on record: probe [3H]-QNB/[3H]-NMS.
The target of series [12] is muscarinic M5 receptor (Homo sapiens, UniProt P08912). As to the kind of experiment: Displacement of [3H]-QNB/[3H]-NMS from human muscarinic M5 receptor expressed in stable CHO cell membranes at 10 uM after 90 mins by microbeta scintillation counting method relative to control. The settings on record: probe [3H]-QNB/[3H]-NMS.
For series [13], the target named is beta3 adrenergic receptor (Homo sapiens, UniProt P13945). As to the kind of experiment: Displacement of [3H]-CGP12177 from recombinant human beta3 adrenergic receptor expressed in HEK Flp-In cell membranes at 10 uM measured after 90 mins by microbeta scintillation counting method relative to control. The settings on record: probe [3H]-CGP12177.
The target of series [14] is T1, Alpha-1B adrenergic receptor (Homo sapiens, UniProt P35368).
T1 sequence (P35368 whole entry): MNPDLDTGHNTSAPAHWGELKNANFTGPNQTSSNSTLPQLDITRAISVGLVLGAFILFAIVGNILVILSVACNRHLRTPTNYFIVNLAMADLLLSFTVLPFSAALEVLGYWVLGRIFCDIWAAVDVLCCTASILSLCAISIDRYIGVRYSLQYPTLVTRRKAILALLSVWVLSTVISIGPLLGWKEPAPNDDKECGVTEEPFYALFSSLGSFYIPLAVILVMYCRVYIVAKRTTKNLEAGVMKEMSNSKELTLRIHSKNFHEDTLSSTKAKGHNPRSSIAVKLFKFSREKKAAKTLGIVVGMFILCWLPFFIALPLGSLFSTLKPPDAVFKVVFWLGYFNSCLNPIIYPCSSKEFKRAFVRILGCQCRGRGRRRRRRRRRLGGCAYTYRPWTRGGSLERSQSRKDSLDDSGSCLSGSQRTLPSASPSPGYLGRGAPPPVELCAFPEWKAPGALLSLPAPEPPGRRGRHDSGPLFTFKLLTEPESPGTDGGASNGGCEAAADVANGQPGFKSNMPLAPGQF
As to the kind of experiment: Displacement of [3H]-prazosin from recombinant human alpha1B adrenergic receptor transiently expressed in HEKT cell membranes at 10 uM measured after 90 mins by microbeta scintillation counting method relative to control. The settings on record: probe [3H]-prazosin.

Series [15] concerns the target Sodium-dependent dopamine transporter (Homo sapiens, UniProt Q01959). As to the kind of experiment: Displacement of [3H]-Win35428 from human DAT expressed in stable HEK cell membranes after 90 mins by microbeta scintillation counting method.
Series [16] has as its target 5-hydroxytryptamine receptor 2A (Homo sapiens, UniProt P28223). Kind of series: Displacement of [3H]-Ketanserin from 5HT2A receptor (unknown origin) measured after 90 mins by microbeta scintillation counting method.
Series [17] addresses 5-hydroxytryptamine receptor 7 (Homo sapiens, UniProt P34969). Kind of series: Displacement of [3H]-LSD from recombinant human 5HT7A receptor stably expressed in HEK cell membranes measured after 90 mins by microbeta scintillation counting method.
The target in series [18] is dopamine D2 receptor (Homo sapiens, UniProt P14416). As to the kind of experiment: Displacement of [3H]-N-methylspiperone from recombinant human D2 receptor stably expressed in fibroblast cell membranes at 10 uM measured after 90 mins by microbeta scintillation counting method relative to control. The settings on record: probe [3H]-N-methylspiperone.
Series [19] deals with 5HT1A receptor (Homo sapiens, UniProt P08908). As to the kind of experiment: Displacement of [3H]-Way100635 from recombinant human 5HT1A receptor stably expressed in CHO cell membranes at 10 uM measured after 90 mins by microbeta scintillation counting method relative to control. The settings on record: probe [3H]-Way100635.
In series [20] the target is T1, Alpha-1B adrenergic receptor. Kind of series: Displacement of [3H]-prazosin from recombinant human alpha1B adrenergic receptor transiently expressed in HEKT cell membranes measured after 90 mins by microbeta scintillation counting method.
For series [21], the target named is muscarinic M3 receptor (Homo sapiens, UniProt P20309). As to the kind of experiment: Displacement of [3H]-QNB/[3H]-NMS from human muscarinic M3 receptor expressed in stable CHO cell membranes at 10 uM after 90 mins by microbeta scintillation counting method relative to control. The settings on record: probe [3H]-QNB/[3H]-NMS.
The target of series [22] is Kappa-type opioid receptor (Homo sapiens, UniProt P41145). As to the kind of experiment: Displacement of [3H]-U69593 from KOR (unknown origin) measured after 90 mins by microbeta scintillation counting method.

As a reminder, the inhibition is the share of the control response that was lost under treatment. A word on the Ki: it is a dissociation constant, usually derived from enzyme kinetics or from competition with a known ligand.

Turning to `CCCN(CC[C@]1(O)C[C@H](NC(=O)c2ccc3ccccc3c2)C1)[C@H]1CCc2nc(N)sc2C1`, the inhibition at […], 10 µM was less than 50% in [1]; greater than 50% in [3]; greater than 50% in [5]; less than 50% in series [7]; less than 50% in [9]; greater than 50% in series [10]. Besides, the inhibition at […], 10 µM in series [11] is less than 50%; in series [12], greater than 50%; in series [13], less than 50%; in [14] it was greater than 50%; in series [18] it was greater than 50%; in [19], greater than 50%. Also, the inhibition at […], 10 µM in series [21] is less than 50%. Besides, the Ki in series [2] (read-out: Ki) was determined as 745 nM; in [4] (read-out: Ki), 2280 nM; in [6] (read-out: Ki), 1180 nM; in [8] (read-out: Ki) it was 2300 nM; in series [15] (read-out: Ki), 205 nM; in series [16] (read-out: Ki) it was 2840 nM. In addition, the figures for the Ki in series [17], in series [20] (read-out: Ki) and in [22] (read-out: Ki) were 770 nM, 666 nM and greater than 10 µM, respectively.
Consider `CCCN[C@H]1CCc2nc(N)sc2C1` [PRAMIPEXOLE], for which the inhibition at […], 10 µM in [1] was greater than 50%; in series [3], less than 50%; in series [5], less than 50%; in series [7], greater than 50%; in [9], less than 50%; in series [10] it was less than 50%. Moreover, the inhibition at […], 10 µM in [11] is greater than 50%; in series [12] it was less than 50%; in [13] it was greater than 50%; in series [14], less than 50%; in [18], greater than 50%; in series [19], greater than 50%. Also, the inhibition at […], 10 µM in series [21] is greater than 50%. In addition, the Ki result in [2], in [4] (cho), in series [6], in [8] (cho), in series [15] and in series [16] was “Not Active” each time. Further, the Ki in [17] was 1190 nM; in series [20], “Not Active”; in [22], “Not Active”.
